In patent US12077503B2, “Substituted cyclic amides and their use as herbicides” (FMC CORPORATION, priority 2015, dated 2024):

Key:
Format in all cases: in vivo
[1] = system: Kochia (Kochia scoparia); assay: Test A preemergence; details: Bassia scoparia, pre-emergence, 240 h, preemergence, 0 to 100 scale where 0 is no effect and 100 is complete control, read-out: Kochia plant response rating; for pest or weed control at 125 g/ha: 125 g ai/ha, visual injury rating, approximately 10 d; for pest or weed control at 500 g/ha: 500 g ai/ha
How it was run: (§1)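 Treatment is preemergence as a directed soil spray after planting, or postemergence at the one- to two-leaf stage, with test chemical in a non-phytotoxic solvent mixture plus surfactant. Plants stay in the greenhouse about 10 d before visual injury scoring on a 0 to 100 scale versus untreated controls.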

[2] = system: barnyardgrass (Echinochloa crus-galli); assay: Test A preemergence; details: Echinochloa crus-galli, pre-emergence, 240 h, preemergence, 0 to 100 scale where 0 is no effect and 100 is complete control, read-out: Barnyardgrass plant response rating; for pest or weed control at 125 g/ha: 125 g ai/ha, visual injury rating, approximately 10 d; for pest or weed control at 500 g/ha: 500 g ai/ha
How it was run: as §1

[3] = system: giant foxtail (Setaria faberii); assay: Test A preemergence; details: Setaria faberi, pre-emergence, 240 h, preemergence, 0 to 100 scale where 0 is no effect and 100 is complete control, read-out: Foxtail, Giant plant response rating; for pest or weed control at 125 g/ha: 125 g ai/ha, visual injury rating, approximately 10 d; for pest or weed control at 500 g/ha: 500 g ai/ha
How it was run: as §1

[4] = system: ragweed (common ragweed, Ambrosia elatior); assay: Test A preemergence; details: Ambrosia artemisiifolia, pre-emergence, 240 h, preemergence, 0 to 100 scale where 0 is no effect and 100 is complete control, read-out: Ragweed plant response rating; for pest or weed control at 125 g/ha: 125 g ai/ha, visual injury rating, approximately 10 d; for pest or weed control at 500 g/ha: 500 g ai/ha
How it was run: as §1

[5] = system: ryegrass, Italian (Italian ryegrass, Lolium multiflorum); assay: Test A preemergence; details: Lolium multiflorum, pre-emergence, 240 h, preemergence, 0 to 100 scale where 0 is no effect and 100 is complete control, read-out: Ryegrass, Italian plant response rating; for pest or weed control at 125 g/ha: 125 g ai/ha, visual injury rating, approximately 10 d; for pest or weed control at 500 g/ha: 500 g ai/ha
How it was run: as §1

[6] = system: Galium (catchweed bedstraw, Galium aparine); assay: Test A postemergence; details: Galium, post-emergence, 240 h, postemergence; for pest or weed control at 125 g/ha: 125 g ai/ha, visual injury vs untreated controls after approx. 10 d, 0 = no effect, 100 = complete control, read-out: Galium plant response rating (0 to 100 scale); for pest or weed control at 500 g/ha: 500 g ai/ha, 0 to 100 scale, 0 is no effect, 100 is complete control, read-out: Galium plant response rating
How it was run: as §1

[7] = system: Kochia (Kochia scoparia); assay: Test A postemergence; details: Bassia scoparia, post-emergence, 240 h, postemergence; for pest or weed control at 125 g/ha: 125 g ai/ha, visual injury vs untreated controls after approx. 10 d, 0 = no effect, 100 = complete control, read-out: Kochia plant response rating (0 to 100 scale); for pest or weed control at 500 g/ha: 500 g ai/ha, 0 to 100 scale, 0 is no effect, 100 is complete control, read-out: Kochia plant response rating
How it was run: as §1

[8] = system: blackgrass (Alopecurus myosuroides); assay: Test A postemergence; details: Alopecurus myosuroides, post-emergence, 240 h, postemergence; for pest or weed control at 125 g/ha: 125 g ai/ha, visual injury vs untreated controls after approx. 10 d, 0 = no effect, 100 = complete control, read-out: Blackgrass plant response rating (0 to 100 scale); for pest or weed control at 500 g/ha: 500 g ai/ha, 0 to 100 scale, 0 is no effect, 100 is complete control, read-out: Blackgrass plant response rating
How it was run: as §1

[9] = system: corn (Zea mays); assay: Test A postemergence; details: Zea mays, post-emergence, 240 h, postemergence; for plant injury at 125 g/ha: 125 g ai/ha, visual injury vs untreated controls after approx. 10 d, 0 = no effect, 100 = complete control, read-out: Corn plant response rating (0 to 100 scale); for plant injury at 500 g/ha: 500 g ai/ha, 0 to 100 scale, 0 is no effect, 100 is complete control, read-out: Corn plant response rating
How it was run: as §1

[10] = system: giant foxtail (Setaria faberii); assay: Test A postemergence; details: Setaria faberi, post-emergence, 240 h, postemergence; for pest or weed control at 125 g/ha: 125 g ai/ha, visual injury vs untreated controls after approx. 10 d, 0 = no effect, 100 = complete control, read-out: Foxtail, Giant plant response rating (0 to 100 scale); for pest or weed control at 500 g/ha: 500 g ai/ha, 0 to 100 scale, 0 is no effect, 100 is complete control, read-out: Foxtail, Giant plant response rating
How it was run: as §1

[11] = system: pigweed (Amaranthus retroflexus); assay: Test A postemergence; details: Amaranthus retroflexus, post-emergence, 240 h, postemergence; for pest or weed control at 125 g/ha: 125 g ai/ha, visual injury vs untreated controls after approx. 10 d, 0 = no effect, 100 = complete control, read-out: Pigweed plant response rating (0 to 100 scale); for pest or weed control at 500 g/ha: 500 g ai/ha, 0 to 100 scale, 0 is no effect, 100 is complete control, read-out: Pigweed plant response rating
How it was run: as §1

[12] = system: ragweed (common ragweed, Ambrosia elatior); assay: Test A postemergence; details: Ambrosia artemisiifolia, post-emergence, 240 h, postemergence; for pest or weed control at 125 g/ha: 125 g ai/ha, visual injury vs untreated controls after approx. 10 d, 0 = no effect, 100 = complete control, read-out: Ragweed plant response rating (0 to 100 scale); for pest or weed control at 500 g/ha: 500 g ai/ha, 0 to 100 scale, 0 is no effect, 100 is complete control, read-out: Ragweed plant response rating
How it was run: as §1

[13] = system: ryegrass, Italian (Italian ryegrass, Lolium multiflorum); assay: Test A postemergence; details: Lolium multiflorum, post-emergence, 240 h, postemergence; for pest or weed control at 125 g/ha: 125 g ai/ha, visual injury vs untreated controls after approx. 10 d, 0 = no effect, 100 = complete control, read-out: Ryegrass, Italian plant response rating (0 to 100 scale); for pest or weed control at 500 g/ha: 500 g ai/ha, 0 to 100 scale, 0 is no effect, 100 is complete control, read-out: Ryegrass, Italian plant response rating
How it was run: as §1

[14] = system: wheat (Triticum aestivum); assay: Test A postemergence; details: Triticum aestivum, post-emergence, 240 h, postemergence; for plant injury at 125 g/ha: 125 g ai/ha, visual injury vs untreated controls after approx. 10 d, 0 = no effect, 100 = complete control, read-out: Wheat plant response rating (0 to 100 scale); for plant injury at 500 g/ha: 500 g ai/ha, 0 to 100 scale, 0 is no effect, 100 is complete control, read-out: Wheat plant response rating
How it was run: as §1

Row | SMILES | pest or weed control at 125 g/ha [1] [%] | pest or weed control at 500 g/ha [1] [%] | pest or weed control at 125 g/ha [2] [%] | pest or weed control at 500 g/ha [2] [%] | pest or weed control at 125 g/ha [3] [%] | pest or weed control at 500 g/ha [3] [%] | pest or weed control at 125 g/ha [4] [%] | pest or weed control at 500 g/ha [4] [%] | pest or weed control at 125 g/ha [5] [%] | pest or weed control at 500 g/ha [5] [%] | pest or weed control at 125 g/ha [6] [%] | pest or weed control at 500 g/ha [6] [%] | pest or weed control at 125 g/ha [7] [%] | pest or weed control at 500 g/ha [7] [%] | pest or weed control at 125 g/ha [8] [%] | pest or weed control at 500 g/ha [8] [%] | plant injury at 125 g/ha [9] [%] | plant injury at 500 g/ha [9] [%] | pest or weed control at 125 g/ha [10] [%] | pest or weed control at 500 g/ha [10] [%] | other results
1 | CN1C[C@H](c2ccc3c(c2)OC(F)(F)O3)[C@@H](C(=O)Nc2ccc(F)c(F)c2F)C1=O [Compound 1204] | 80 | 80 | 90 | 90 | 90 | 90 | 90 | 90 | 70 | 90 | 50 | 60 | 80 | 80 | 50 | 70 | 70 | 80 | 90 | 90 | pest or weed control at 125 g/ha [11]: 70%; pest or weed control at 500 g/ha [11]: 80%; pest or weed control at 125 g/ha [12]: 20%; pest or weed control at 500 g/ha [12]: 60%; pest or weed control at 125 g/ha [13]: 70%; pest or weed control at 500 g/ha [13]: 80%; plant injury at 125 g/ha [14]: 60%; plant injury at 500 g/ha [14]: 70%
2 | COc1ccc([C@H]2CN(C)C(=O)[C@@H]2C(=O)Nc2ccccc2F)c(OC)c1 [Compound 1215] | 0 | 90 | 90 | 100 | 60 | 90 | 0 | 0 | 0 | 0 | 0 | 0 | 0 | 30 | 0 | 0 | 0 | 0 | 70 | 90 | pest or weed control at 125 g/ha [11]: 0%; pest or weed control at 500 g/ha [11]: 0%; pest or weed control at 125 g/ha [12]: 0%; pest or weed control at 500 g/ha [12]: 0%; pest or weed control at 125 g/ha [13]: 0%; pest or weed control at 500 g/ha [13]: 0%; plant injury at 125 g/ha [14]: 0%; plant injury at 500 g/ha [14]: 0%
3 | COc1cc([C@H]2CN(C)C(=O)[C@@H]2C(=O)Nc2ccccc2F)cc(OC)c1OC [Compound 1217] | 0 | 0 | 90 | 100 | 90 | 100 | 0 | 0 | 0 | 0 | 0 | 0 | 0 | 0 | 0 | 0 | 0 | 0 | 90 | 90 | pest or weed control at 125 g/ha [11]: 0%; pest or weed control at 500 g/ha [11]: 0%; pest or weed control at 125 g/ha [12]: 0%; pest or weed control at 500 g/ha [12]: 0%; pest or weed control at 125 g/ha [13]: 0%; pest or weed control at 500 g/ha [13]: 0%; plant injury at 125 g/ha [14]: 0%; plant injury at 500 g/ha [14]: 0%
